Assay results from US20070010402A1, “Novel herbicides, usage thereof, novel thienopyrimidine derivatives, intermediates of the same, and process for production thereof” (NIHON NOHYAKU CO., LTD.,, priority 2002, published 2007).

Experiments:
[1] = tested on: Chenopodium album; assay: Field soil treatment test (Test Example 2); assay type: in vivo; settings: soil spray after seeding, wettable powder, active ingredient 10 g/a, 21st day from the treatment
Method: (§1) The herbicidal effect was evaluated in terms of herbicidal rate obtained from the following equation: Herbicidal rate (%)=[1−(Weight of weeds above the ground in a treated plot)/(Weight of weeds above the ground in a non-treated plot)]×100 and was expressed by herbicidal index according to the following criteria. [table] Alluvial soil from a field was put in a resin-made vat having an area of 200 cm^2. After fertilization, the seeds of Digitaria ciliaris, Chenopodium album and Polygonum lapathifolium were cast on the soil and uniformly covered with the soil. The wettable powder obtained in Formulation Example 1 was diluted with water and a predetermined amount thereof was sprayed uniformly to the soil by means of a small-sized power pressure spray so as to give 10 g of the active ingredient per an are. Thereafter, cultivation was further continued in the greenhouse, and the herbicidal effect was examined on the 21st day from the treatment. The results obtained are shown in Table 8 (the compound numbers in Table 8 correspond to those in Tables 1 to 6).

[2] = tested on: Digitaria ciliaris; assay: Field soil treatment test (Test Example 2); assay type: in vivo; settings: soil spray after seeding, wettable powder, active ingredient 10 g/a, 21st day from the treatment
Method: as §1

[3] = tested on: Polygonum lapathifolium; assay: Field soil treatment test (Test Example 2); assay type: in vivo; settings: soil spray after seeding, wettable powder, active ingredient 10 g/a, 21st day from the treatment
Method: as §1

[4] = tested on: Rotala indica; assay: Submerged foliar treatment test (Test Example 3); assay type: in vivo; settings: water depth 3 cm, cotyledon to 1-leaf stage, wettable powder, active ingredient 10 g/a, 28th day from the treatment
Method: (§2) The herbicidal effect was evaluated in terms of herbicidal rate obtained from the following equation: Herbicidal rate (%)=[1−(Weight of weeds above the ground in a treated plot)/(Weight of weeds above the ground in a non-treated plot)]×100
(§3) and was expressed by herbicidal index according to the following criteria.
(§4) Alluvial soil from a paddy field was put in a resin-made vat having an area of 200 cm^2. After fertilization, seeds of Echinochloa oryzicola, Rotala indica and Scirpus juncoides were cast on the soil and uniformly covered with the soil, and water was poured onto the soil to keep a water depth of 3 cm. Then, cultivation was continued in a greenhouse, and when the weeds to be tested reached the cotyledon stage to 1-leaf stage, the wettable powder obtained in Formulation Example 1 was diluted with water and a predetermined amount thereof was added dropwise uniformly to the weeds by means of a pipette to give 10 g of the active ingredient per an are. Thereafter, cultivation was further continued in the greenhouse, and the herbicidal effect was examined on the 28th day from the treatment. The results obtained are shown in Table 9 (the compound numbers in Table 9 correspond to those in Tables 1 to 6).

[5] = tested on: Echinochloa oryzicola; assay: Submerged foliar treatment test (Test Example 3); assay type: in vivo; settings: water depth 3 cm, cotyledon to 1-leaf stage, wettable powder, active ingredient 10 g/a, 28th day from the treatment
Method: as §2, §3, §4

[6] = tested on: Scirpus juncoides; assay: Submerged foliar treatment test (Test Example 3); assay type: in vivo; settings: water depth 3 cm, cotyledon to 1-leaf stage, wettable powder, active ingredient 10 g/a, 28th day from the treatment
Method: as §2, §3, §4

Compound | Herbicidal effect Chenopodium album (herbicidal index) [1] | Herbicidal effect Digitaria ciliaris (herbicidal index) [2] | Herbicidal effect Polygonum lapathifolium (herbicidal index) [3] | Herbicidal effect Rotala indica (herbicidal index) [4] | Herbicidal effect Echinochloa oryzicola (herbicidal index) [5] | Herbicidal effect Scirpus juncoides (herbicidal index) [6] | melting point
Cc1cc2c(-c3cccc(C(F)(F)F)c3)nc(OC(C)(C)C)nc2s1 [6-27] | 5 (91 to 100) | 5 (91 to 100) | 4 (71 to 90) |  |  |  | 
Cc1cc2c(-c3ccc(F)c(C(F)(F)F)c3)nc(OC(C)C)nc2s1 [6-30] | 5 (91 to 100) | 5 (91 to 100) | 5 (91 to 100) |  |  |  | 
Cc1cc2c(-c3cccc(OC(F)(F)F)c3)nc(OC(C)C)nc2s1 [6-36] | 5 (91 to 100) | 5 (91 to 100) | 5 (91 to 100) |  |  |  | 
CCOc1nc(-c2ccccc2C(F)(F)F)c2cc(C)sc2n1 [6-43] | 5 (91 to 100) | 5 (91 to 100) | 2 (31 to 50) |  |  |  | 
C=CCOc1nc(-c2cccc(C(F)(F)F)c2)c2cc(C)sc2n1 [6-88] | 5 (91 to 100) | 5 (91 to 100) | 5 (91 to 100) |  |  |  | 
Cc1cc2c(-c3cccc(C(F)(F)F)c3)nc(OC(C)C(F)(F)F)nc2s1 (centres unmarked) [6-100] | 5 (91 to 100) | 5 (91 to 100) | 5 (91 to 100) |  |  |  | 
Cc1cc2c(-c3cccc(C(F)(F)F)c3)nc(OCC(F)(F)C(F)(F)F)nc2s1 [6-101] | 5 (91 to 100) | 5 (91 to 100) | 4 (71 to 90) |  |  |  | 
Cc1cc2c(-c3cccc(C(F)(F)F)c3)nc(OCC(F)(F)C(F)F)nc2s1 [6-103] | 5 (91 to 100) | 5 (91 to 100) | 5 (91 to 100) |  |  |  | 
Cc1cc2c(-c3cccc(OC(F)(F)F)c3)nc(OCCF)nc2s1 [6-107] | 5 (91 to 100) | 5 (91 to 100) | 5 (91 to 100) |  |  |  | 
Cc1cc2c(-c3cccc(OC(F)(F)F)c3)nc(OCC(F)(F)F)nc2s1 [6-108] | 5 (91 to 100) | 5 (91 to 100) | 5 (91 to 100) |  |  |  | 
Cc1cc2c(-c3cccc(OC(F)(F)F)c3)nc(OC(C)C(F)(F)F)nc2s1 (centres unmarked) [6-110] | 5 (91 to 100) | 5 (91 to 100) | 5 (91 to 100) |  |  |  | 
Cc1cc2c(-c3cccc(OC(F)(F)F)c3)nc(OCC(F)(F)C(F)(F)F)nc2s1 [6-111] | 5 (91 to 100) | 5 (91 to 100) | 5 (91 to 100) |  |  |  | 
Cc1cc2c(-c3cccc(SC(F)(F)F)c3)nc(OCC(F)(F)C(F)F)nc2s1 [6-119] | 5 (91 to 100) | 5 (91 to 100) | 5 (91 to 100) |  |  |  | 
Cc1cc2c(-c3cccc(OC(F)F)c3)nc(OCC(F)(F)F)nc2s1 [6-121] | 5 (91 to 100) | 5 (91 to 100) | 5 (91 to 100) |  |  |  | 
Cc1cc2c(-c3cccc(OC(F)F)c3)nc(OCC(F)F)nc2s1 [6-122] | 5 (91 to 100) | 5 (91 to 100) | 5 (91 to 100) |  |  |  | 
Cc1cc2c(-c3cccc(C(F)(F)F)c3)nc(OS(C)(=O)=O)nc2s1 [6-148] | 5 (91 to 100) | 5 (91 to 100) | 4 (71 to 90) |  |  |  | 
Cc1cc2c(-c3cccc(C(F)(F)F)c3)nc(OS(=O)(=O)N(C)C)nc2s1 [6-160] |  |  |  | 5 (91 to 100) | 5 (91 to 100) | 4 (71 to 90) | 
Cc1cc2c(-c3cccc(SC(F)(F)F)c3)nc(OS(C)(=O)=O)nc2s1 [6-164] |  |  |  | 5 (91 to 100) | 5 (91 to 100) | 4 (71 to 90) | 
Cc1cc2c(-c3cccc(C(F)(F)F)c3)nc(N(C)C)nc2s1 [6-169] |  |  |  | 5 (91 to 100) | 5 (91 to 100) | 2 (31 to 50) | 
Cc1cc2c(-c3cccc(C(F)(F)F)c3)nc(S(C)(=O)=O)nc2s1 [6-174] |  |  |  | 5 (91 to 100) | 1 (6 to 30) | 3 (51 to 70) | 
Cc1cc2c(-c3cccc(C(F)(F)F)c3)nc(-n3cccc3)nc2s1 [6-189] | 4 (71 to 90) | 5 (91 to 100) | 3 (51 to 70) |  |  |  | 
Cc1cc2c(-c3ccccc3C(F)(F)F)nc(-n3ccnc3)nc2s1 [6-191] |  |  |  | 5 (91 to 100) | 5 (91 to 100) | 3 (51 to 70) | 
Cc1cc2c(-c3cccc(C(F)(F)F)c3)nc(-n3ccc(C(F)(F)F)n3)nc2s1 [6-198] | 5 (91 to 100) | 5 (91 to 100) | 5 (91 to 100) |  |  |  | 
Cc1cc2c(-c3cccc(OC(F)(F)F)c3)nc(-n3ccc(C(F)(F)F)n3)nc2s1 [6-199] | 5 (91 to 100) | 5 (91 to 100) | 5 (91 to 100) |  |  |  | 
Cc1cc2c(-n3ccc(C(F)(F)F)n3)nc(-n3ccc(C(F)(F)F)n3)nc2s1 [6-200] |  |  |  | 5 (91 to 100) | 3 (51 to 70) | 3 (51 to 70) | 
Cc1cc2c(Oc3cccc(C(F)(F)F)c3)nc(-n3ccc(C(F)(F)F)n3)nc2s1 [6-201] |  |  |  | 5 (91 to 100) | 5 (91 to 100) | 3 (51 to 70) | 
Cc1cc2c(-c3cccc(C(F)(F)F)c3)nc(O)nc2s1 [Compound No. 4-3, 6-methyl-4-[3-(trifluoromethyl)phenyl]thieno[2,3-d]pyrimidine-2-ol] |  |  |  |  |  |  | 251 to 253 °C (dec.)
Cc1cc2c(-c3cccnc3Cl)nc(O)nc2s1 [Compound No. 4-22, 4-(2-chloropyridine-3-yl)-6-methylthieno[2,3-d]pyrimidine-2-ol] |  |  |  |  |  |  | > 300 °C
Cc1cc2c(-c3ccccc3C(F)(F)F)nc(Cl)nc2s1 [Compound No. 5-3] |  |  |  | 5 (91 to 100) | 5 (91 to 100) | 3 (51 to 70) | 
